Source: patent US20070155771A1, “Methods and means for treating protein conformational disorders” (priority 2003, published 2007)

What was measured:
[1] = tested on: human wild-type α-synuclein; assay: α-Synuclein degradation in inducible PC12 cell lines (western blot), wildtype; format: cell-based, rat; conditions: 10 mM 3MA, 200 nM bafilomycin A1; for α-synuclein levels, mitotic wildtype lines: 48 hours; for fold increase in α-synuclein levels (densitometry as a function of tubulin) vs control cells, wildtype: +/− SE, did not reach significance
Text: (§1) Human α-synuclein with a HA tag at the N-terminus and a 6His tag at the C-terminus was amplified from pHM6α-synuclein constructs (Furlong, R. A. et a; 1 (2000) Biochem. J. 346, 577581) and inserted into pTRE2 hyg vector (Clontech) using Nhe I/Sal I sites. Constructs were confirmed by sequencing before use. The pTRE2 hygα-synuclein construct and pTettTS (Clontech) were cotransfected into PC12 TetOn cells (Clontech), using Lipofectamine (Invitrogen) and Plus Reagent (Invitrogen). Single colonies were isolated using cloning cylinders (Sigma) and cells were grown and tested for α-synuclein expression upon induction. Cell lines were subjected to a further round of purification from single colonies to ensure that lines were pure.
(§2) PC12 cells were grown in Dulbecco's modified eagle's medium (DMEM, Sigma) supplemented with 10% horse serum (Sigma), 5% fetal bovine serum (Sigma), 100 U/ml penicillin/streptomycin, 2 mM L-glutamine, […] G418 (Invitrogen) and […] hygromycin B (Calbiochem) at 37° C., 10% CO2. To induce differentiation, cells were grown in media containing 1% horse serum and 100 ng/ml nerve growth factor (2.5S, Upstate Biotechnology) and incubated for about 5 days. Cells were induced to express synuclein with […] doxycycline (Sigma).
(§3) Cells were induced for 24 hours and then washed twice with media to remove doxycycline. Then cells were incubated in […] media containing either 10 mM 3-methyladenine (3MA, Sigma), 200 nM bafilomycin A1 (Sigma), […] rapamycin (Sigma), […] lactacystin (Sigma), […] epoxomicin (Affinity Research Products Ltd) or carrier controls (water or DMSO (Sigma)). 3MA and lactacystin were made up in water and rapamycin, epoxomicin and bafilomycin were dissolved in DMSO.
(§4) After 24 hours the media was replaced with fresh media plus drug and after a further 24 hours cell pellets were collected and stored at −80° C. until required.
(§5) Cell pellets were collected and stored at −80° C. until needed. Cells were lysed on ice in lysis buffer: 1% TritonX100, 20 mM TRIS pH7.5, 137 mM NaCl, 1 mM EGTA, 10% glycerol, 1.5 mM MgCl2 and protease inhibitor cocktail (Complete, Roche). […]
(§6) Each lane was loaded with protein from a similar number of cells, based on cell counting at the time of seeding. Proteins were transferred onto Hybond ECL nitrocellulose membrane (Amersham). α-Synuclein was detected with an antiHA monoclonal antibody (Covance) at 1:1000 dilution with 4-18 hours incubation. HRP conjugated antimouse antibody (Amersham) at 1:2000 dilution was then added to blots and antibody was detected using ECL blotting reagents (Amersham) and Hyperfilm ECL (Amersham). […]

[2] = tested on: human A30P α-synuclein; assay: α-Synuclein degradation in inducible PC12 cell lines (western blot), A30P; format: cell-based, rat; conditions: 10 mM 3MA, 200 nM bafilomycin A1; for α-synuclein levels, mitotic A30P lines: 48 hours; for fold increase in α-synuclein levels (densitometry as a function of tubulin) vs control cells, A30P: +/− SE, significant
Text: as §1, §2, §3, §4, §5, §6

[3] = tested on: human A53T α-synuclein; assay: α-Synuclein degradation in inducible PC12 cell lines (western blot), A53T; format: cell-based, rat; conditions: 10 mM 3MA, 200 nM bafilomycin A1; 48 hours
Text: as §1, with “pure. […]” for “pure.”
as §6

[4] = tested on: human wild-type, A30P and A53T α-synuclein; assay: α-Synuclein degradation in inducible PC12 cell lines (western blot), all forms; format: cell-based; conditions: for α-synuclein levels: induced 24 hours, doxycycline removed, drug 48 hours, cycling and differentiated cells, 0.2 mg/ml rapamycin, 10 mM lactacystin, 10 mM epoxomicin [sic]
Text: as §1, §2, §3, §4
Cell pellets were collected and stored at −80° C. until needed. Cells were lysed on ice in lysis buffer: 1% TritonX100, 20 mM TRIS pH7.5, 137 mM NaCl, 1 mM EGTA, 10% glycerol, 1.5 mM MgCl2 and protease inhibitor cocktail (Complete, Roche).
Samples were then mixed with loading buffer: 62.5 mM TRIS pH 6.8, 2% SDS, 10% glycerol, 0.05% bromophenol blue, 100 mM dithiothreitol and 700 mM β-mercaptoethanol and boiled before loading onto 14% denaturing polyacrylamide gels.
Each lane was loaded with protein from a similar number of cells, based on cell counting at the time of seeding. Proteins were transferred onto Hybond ECL nitrocellulose membrane (Amersham). α-Synuclein was detected with an antiHA monoclonal antibody (Covance) at 1:1000 dilution with 4-18 hours incubation. HRP conjugated antimouse antibody (Amersham) at 1:2000 dilution was then added to blots and antibody was detected using ECL blotting reagents (Amersham) and Hyperfilm ECL (Amersham). Blots were stripped and then reprobed for α-tubulin (Sigma) at 1:1000 dilution.
PC12 cell lines as described above (i.e. mitotic and neuronally differentiated wild-type, A53T and A30P PC12 lines) were induced for 24 hours, then doxycycline was removed and the drugs were added for 48 hours. The trends we observed were similar in cells treated with drugs for 24 and 72 hours.

[5] = tested on: mTOR-dependent TOP-translation; assay: Luciferase reporter assay with non-typical TOP sequence in COS-7 cells co-transfected with Q23 or Q74; format: cell-based, African green monkey
Protocol: PC12 cells stably expressing Q23 or Q74 were transfected with a luciferase construct having a 5′ untranslated region from the eEF2 gene containing a terminal oligopyrimidine tract (TOP-luciferase) or without the TOP sequence (Control-luciferase) along with β-galactosidase (to control transfection efficiency). Transfected cells were maintained in serum free medium with doxycycline for 36 hours following which the cells were stimulated with 15% serum with or without rapamycin for 3 h. Cells were then lysed and luciferase assays were performed according to standard protocol. COS-7 cells were co-transfected with Q23 or Q74 with control- or TOP-luciferase along with β-gal and experiments were performed as above. […] Experiments were performed in sextuplicate and repeated several times.
The data in FIG. 11C is represented as explained above for FIG. 10C.

[6] = cited from earlier work

Row | Molecule | α-synuclein levels, mitotic wildtype lines [1] | fold increase in α-synuclein levels (densitometry as a function of tubulin) vs control cells, wildtype [1] [fold] | α-synuclein levels, mitotic A30P lines [2] | fold increase in α-synuclein levels (densitometry as a function of tubulin) vs control cells, A30P [2] [fold] | α-synuclein levels in the A53T lines [3] | α-synuclein levels [4] | cell death or overt aggregate formation ([4]; proteasome inhibitors for 48 hours) | rapamycin-dependent reduction in luciferase activity (non-typical TOP sequence) ([5]; COS-7 cells transfected with Q23) [%] | rapamycin-dependent reduction in luciferase activity (non-typical TOP sequence) ([5]; COS-7 cells transfected with Q74) | water solubility [6]
1 | Cn1cnc(N)c2ncnc1-2 [3-MA, 3-methyl adenine] | slight changes, at best | 1.48 | slight changes, at best | 1.13 | obvious increase | – | – | – | – | –
2 | CO/C1=C\C(C)=C\[C@@H](C)[C@@H](O)[C@@H](C)C/C(C)=C/C=C/[C@H](OC)[C@@H]([C@@H](C)[C@@H](O)[C@H](C)[C@@]2(O)C[C@@H](O)[C@H](C)[C@@H](C(C)C)O2)OC1=O [BafA1, Bafilomycin A1] | slight changes, at best | 1.12 | slight changes, at best | 1.19 | obvious increase | – | – | – | – | –
3 | CC[C@H](C)[C@H](NC(=O)[C@H]([C@@H](C)CC)N(C)C(C)=O)C(=O)N[C@H](C(=O)N[C@@H](CC(C)C)C(=O)[C@@]1(C)CO1)[C@@H](C)O [epoxomicin] | – | – | – | – | – | increase | did not cause increased cell death or overt aggregate formation | – | – | –
4 | rapamycin | – | – | – | – | – | significantly reduce | – | 23 | no such effect | poor
